Assay results: patent US10793563B2, “GCN2 inhibitors and uses thereof” (Merck Patent GmbH, priority 2018, dated 2020)
pIC50, pKi: −log10 of the molar value.

Molecular target: GCN2 kinase (Homo sapiens (Human), UniProt Q9P2K8)
Test: GCN2 Enzyme Inhibition Assay (Transcreener ADP2 fluorescence polarization)
Assay type: biochemical
Settings: 280 μM ATP, 200 μM (RS)7 peptide, 4 nM GCN2, 25° C.
Procedure: Compounds were screened for their ability to inhibit GCN2 kinase activity using a Transcreener® ADP^2 fluorescence polarization assay that detects ADP levels (BellBrook Labs, WI). Assays were carried out in a buffer consisting of 25 mM Tris-HCl (pH 7.5), 50 mM NaCl, 10 mM MgCl2 and 1 mM DTT. […] Assays were carried out at 25° C. in the presence of a (typical) final concentration of 4 nM GCN2 kinase. An assay buffer containing GCN2 kinase and (RS)7 was prepared. […] The plate was incubated for 10 minutes at 25° C. prior to the addition of 4.7 μL of ATP stock buffer to initiate the enzyme reaction. The reaction was allowed to proceed for 1 hour at 25° C., prior to the addition of 10 μL detection buffer (consisting of appropriate concentrations of ADP^2 antibody and ADP Alexa633 tracer in 1× stop and detect buffer as supplied by BellBrook Labs). […] Percentage inhibition of enzyme activity was then calculated at each compound dose. IC50 and Ki(app) (using known assay and kinetic parameters) values were calculated from percentage inhibition data using a non-linear, tight-binding algorithm. All data analysis was undertaken using the Screener® software package (Genedata, Switzerland).

GCN2 kinase, sequence (Q9P2K8 whole entry): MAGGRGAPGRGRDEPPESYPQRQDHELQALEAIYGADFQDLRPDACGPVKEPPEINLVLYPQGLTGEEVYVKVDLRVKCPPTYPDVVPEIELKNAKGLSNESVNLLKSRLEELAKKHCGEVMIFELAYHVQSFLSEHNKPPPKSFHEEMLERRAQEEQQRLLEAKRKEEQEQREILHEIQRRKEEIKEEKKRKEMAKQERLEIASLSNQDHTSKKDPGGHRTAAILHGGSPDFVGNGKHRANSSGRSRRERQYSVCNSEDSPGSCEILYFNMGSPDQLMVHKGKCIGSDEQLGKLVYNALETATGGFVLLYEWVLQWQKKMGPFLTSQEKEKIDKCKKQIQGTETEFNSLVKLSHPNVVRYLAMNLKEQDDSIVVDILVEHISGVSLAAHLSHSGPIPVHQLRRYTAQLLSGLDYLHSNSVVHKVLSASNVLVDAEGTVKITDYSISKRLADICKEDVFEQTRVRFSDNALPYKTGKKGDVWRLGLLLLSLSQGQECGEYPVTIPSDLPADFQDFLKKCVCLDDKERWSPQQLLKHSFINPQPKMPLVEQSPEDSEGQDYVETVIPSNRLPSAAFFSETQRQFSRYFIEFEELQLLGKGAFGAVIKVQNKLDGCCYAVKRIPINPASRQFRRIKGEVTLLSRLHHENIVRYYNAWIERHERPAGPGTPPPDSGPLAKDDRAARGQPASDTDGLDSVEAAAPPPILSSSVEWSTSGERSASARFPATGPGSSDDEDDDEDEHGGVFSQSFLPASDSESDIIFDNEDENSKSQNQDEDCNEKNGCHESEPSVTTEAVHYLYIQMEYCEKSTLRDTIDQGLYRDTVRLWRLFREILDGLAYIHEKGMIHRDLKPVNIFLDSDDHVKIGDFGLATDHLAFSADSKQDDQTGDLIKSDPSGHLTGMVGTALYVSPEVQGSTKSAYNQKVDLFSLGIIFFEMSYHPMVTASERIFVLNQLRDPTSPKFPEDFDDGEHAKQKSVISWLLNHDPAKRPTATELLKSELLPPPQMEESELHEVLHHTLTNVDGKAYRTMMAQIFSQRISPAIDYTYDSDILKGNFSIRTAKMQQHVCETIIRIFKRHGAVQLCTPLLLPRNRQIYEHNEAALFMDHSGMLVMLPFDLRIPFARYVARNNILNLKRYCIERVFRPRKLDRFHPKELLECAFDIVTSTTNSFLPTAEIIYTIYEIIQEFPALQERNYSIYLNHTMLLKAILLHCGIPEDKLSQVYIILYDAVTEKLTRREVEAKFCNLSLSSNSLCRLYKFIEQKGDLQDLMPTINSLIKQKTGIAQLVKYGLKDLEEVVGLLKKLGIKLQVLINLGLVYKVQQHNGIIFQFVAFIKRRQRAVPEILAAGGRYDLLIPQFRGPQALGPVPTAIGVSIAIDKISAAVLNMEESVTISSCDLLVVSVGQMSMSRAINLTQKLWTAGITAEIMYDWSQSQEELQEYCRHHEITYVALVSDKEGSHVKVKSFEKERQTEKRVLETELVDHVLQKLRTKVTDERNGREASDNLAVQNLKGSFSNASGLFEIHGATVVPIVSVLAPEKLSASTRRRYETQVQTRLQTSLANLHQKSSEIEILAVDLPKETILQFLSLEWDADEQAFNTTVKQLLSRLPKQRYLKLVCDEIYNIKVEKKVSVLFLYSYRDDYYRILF

pIC50 | Compound
6.00 to 7.00 | O=C(C1CC12CC2)N1CCN(c2ccnc(-c3cnc4ccc(C(F)(F)F)cn34)n2)CC1c1cn[nH]c1 (stereo not shown) [I-468, (2-(1H-pyrazol-4-yl)-4-(2-(6-(trifluoromethyl)imidazo[1,2-a]pyridin-3-yl)pyrimidin-4-yl)piperazin-1-yl)(spiro[2.2]pentan-1-yl)methanone]
> 8.00 | C[C@H]1CN(c2ccnc(-c3cnc4ccc(C(F)(F)F)cn34)n2)C[C@@H](C(N)=O)O1 [I-264, (2S,6S)-6-methyl-4-(2-(6-(trifluoromethyl)imidazo[1,2-a]pyridin-3-yl)pyrimidin-4-yl)morpholine-2-carboxamide]
7.00 to 8.00 | Cc1nn(C)cc1[C@H]1CN(c2nccc(-c3cnc4ccc(C(F)(F)F)cn34)n2)C[C@@H](C)O1 [I-158, (2S,6R)-2-(1,3-dimethyl-1H-pyrazol-4-yl)-6-methyl-4-(4-(6-(trifluoromethyl)imidazo[1,2-a]pyridin-3-yl)pyrimidin-2-yl)morpholine]
> 8.00 | Cc1[nH]ncc1[C@@H]1CN(c2ccnc(-c3cnc4cc(F)c(C5CC5)cn34)n2)C[C@H](C)O1 [I-429, (2S,6R)-4-(2-(6-cyclopropyl-7-fluoroimidazo[1,2-a]pyridin-3-yl)pyrimidin-4-yl)-2-methyl-6-(5-methyl-1H-pyrazol-4-yl)morpholine]
> 8.00 | Cc1[nH]ncc1[C@H]1CN(c2ccnc(-c3cnc4ccc(C(F)(F)F)cn34)n2)C[C@@H](C)O1 [I-125, (2R,6S)-2-methyl-6-(5-methyl-1H-pyrazol-4-yl)-4-(2-(6-(trifluoromethyl)imidazo[1,2-a]pyridin-3-yl)pyrimidin-4-yl)morpholine]
6.00 to 7.00 | CC(C)(C)OC(=O)NC1CN(c2ccnc(-c3cnc4ccc(Cl)cn34)n2)CC[C@H]1O (stereo in doubt) [I-243, tert-butyl ((3R,4R)-1-(2-(6-chloroimidazo[1,2-a]pyridin-3-yl)pyrimidin-4-yl)-4-hydroxypiperidin-3-yl)carbamate]
> 8.00 | Fc1ccccc1CN1CCN(c2ccnc(-c3cnc4ccc(C(F)(F)F)cn34)n2)CC1c1cn[nH]c1 (stereo not shown) [I-459, 3-(4-(4-(2-fluorobenzyl)-3-(1H-pyrazol-4-yl)piperazin-1-yl)pyrimidin-2-yl)-6-(trifluoromethyl)imidazo[1,2-a]pyridine]
7.00 to 8.00 | NC(=O)C1CN(c2ccnc(-c3cnc4ccc(Cl)cn34)n2)CCO1 (stereo not shown) [I-163, 4-(2-(6-chloroimidazo[1,2-a]pyridin-3-yl)pyrimidin-4-yl)morpholine-2-carboxamide]
6.00 to 7.00 | O=C(O)C1(O)CCCN(c2ccnc(-c3cnc4ccc(C(F)(F)F)cn34)n2)C1 (stereo not shown) [I-214, 3-hydroxy-1-(2-(6-(trifluoromethyl)imidazo[1,2-a]pyridin-3-yl)pyrimidin-4-yl)piperidine-3-carboxylic acid]
7.00 to 8.00 | CC1(C(N)=O)CCCN(c2ccnc(-c3cnc4ccc(C(F)(F)F)cn34)n2)C1 (stereo not shown) [I-192, 3-methyl-1-(2-(6-(trifluoromethyl)imidazo[1,2-a]pyridin-3-yl)pyrimidin-4-yl)piperidine-3-carboxamide]
> 8.00 | NC(=O)C1CC(F)CN(c2ccnc(-c3cnc4ccc(C(F)(F)F)cn34)n2)C1 (stereo not shown) [I-229, 5-fluoro-1-(2-(6-(trifluoromethyl)imidazo[1,2-a]pyridin-3-yl)pyrimidin-4-yl)piperidine-3-carboxamide]

Continued, molecule first:

Compound | pIC50
CC1CN(c2ccnc(-c3cnc4ccc(C(F)(F)F)cn34)n2)CC(C#N)O1 (stereo not shown) [I-331, 6-methyl-4-(2-(6-(trifluoromethyl)imidazo[1,2-a]pyridin-3-yl)pyrimidin-4-yl)morpholine-2-carbonitrile] | 6.00 to 7.00
CC(=O)N1C(C)CN(c2ccnc(-c3cnc4ccc(Cl)cn34)n2)CC1c1c[nH]nc1C (stereo not shown) [I-276, 1-(4-(2-(6-chloroimidazo[1,2-a]pyridin-3-yl)pyrimidin-4-yl)-2-methyl-6-(3-methyl-1H-pyrazol-4-yl)piperazin-1-yl)ethan-1-one] | 6.00 to 7.00
O=S1(=O)CCN2CCN(c3ccnc(-c4cnc5ccc(C(F)(F)F)cn45)n3)CC2C1 (stereo not shown) [I-338, 8-(2-(6-(trifluoromethyl)imidazo[1,2-a]pyridin-3-yl)pyrimidin-4-yl)octahydropyrazino[2,1-c][1,4]thiazine 2,2-dioxide] | 6.00 to 7.00
O=C(O)C1CN(c2ccnc(-c3cnc4ccc(C(F)(F)F)cn34)n2)CC(F)(F)C1 (stereo not shown) [I-205, 5,5-Difluoro-1-[2-(6-trifluoromethyl-imidazo[1,2-a]pyridin-3-yl)-pyrimidin-4-yl]-piperidine-3-carboxylic acid] | 7.00 to 8.00
CC1C(C(N)=O)NCCN1c1ccnc(-c2cnc3cc(F)c(C4CC4)cn23)n1 (stereo not shown) [I-455, 4-(2-(6-cyclopropyl-7-fluoroimidazo[1,2-a]pyridin-3-yl)pyrimidin-4-yl)-3-methylpiperazine-2-carboxamide] | 7.00 to 8.00
Fc1cccc(CN2CCN(c3ccnc(-c4cnc5ccc(C(F)(F)F)cn45)n3)CC2c2cn[nH]c2)c1 (stereo not shown) [I-458, 3-(4-(4-(3-fluorobenzyl)-3-(1H-pyrazol-4-yl)piperazin-1-yl)pyrimidin-2-yl)-6-(trifluoromethyl)imidazo[1,2-a]pyridine] | 7.00 to 8.00
O=C([C@H]1C[C@H]1F)N1CCN(c2ccnc(-c3cnc4ccc(C(F)(F)F)cn34)n2)CC1c1cn[nH]c1 (stereo in doubt) [I-489, (2-(1H-pyrazol-4-yl)-4-(2-(6-(trifluoromethyl)imidazo[1,2-a]pyridin-3-yl)pyrimidin-4-yl)piperazin-1-yl)((1R,2R)-2-fluorocyclopropyl)methanone] | 7.00 to 8.00
Cc1noc(C)c1C(=O)N1CCN(c2ccnc(-c3cnc4ccc(C(F)(F)F)cn34)n2)CC1c1cn[nH]c1 (stereo not shown) [I-519, (2-(1H-pyrazol-4-yl)-4-(2-(6-(trifluoromethyl)imidazo[1,2-a]pyridin-3-yl)pyrimidin-4-yl)piperazin-1-yl)(3,5-dimethylisoxazol-4-yl)methanone] | 6.00 to 7.00
Cc1noc([C@H]2CN(c3ccnc(-c4cnc5ccc(C(F)F)cn45)n3)C[C@@H](C)O2)n1 [I-375, (2R,6R)-4-(2-(6-(difluoromethyl)imidazo[1,2-a]pyridin-3-yl)pyrimidin-4-yl)-2-methyl-6-(3-methyl-1,2,4-oxadiazol-5-yl)morpholine] | 7.00 to 8.00
Cc1nn(C)cc1[C@@H]1C[C@@H](C)CN(c2nccc(-c3cnc4ccc(C(F)(F)F)cn34)n2)C1 [I-140, 3-(2-((3S,5R)-3-(1,3-dimethyl-1H-pyrazol-4-yl)-5-methylpiperidin-1-yl)pyrimidin-4-yl)-6-(trifluoromethyl)imidazo[1,2-a]pyridine] | 6.00 to 7.00
Cc1noc([C@H]2CN(c3ccnc(-c4cnc5ccc(C(F)F)cn45)n3)C[C@@H](C)O2)n1 [I-497, (2R,6R)-4-(2-(6-(difluoromethyl)imidazo[1,2-a]pyridin-3-yl)pyrimidin-4-yl)-2-methyl-6-(3-methyl-1,2,4-oxadiazol-5-yl)morpholine] | 6.00 to 7.00
C[C@@H]1CN(c2ccnc(-c3cnc4ccc(C(F)(F)F)cn34)n2)C[C@H](C)N1C(=O)C1CC(F)(F)C1 [I-437, (3,3-difluorocyclobutyl)(cis-2,6-dimethyl-4-(2-(6-(trifluoromethyl)imidazo[1,2-a]pyridin-3-yl)pyrimidin-4-yl)piperazin-1-yl)methanone] | 6.00 to 7.00
C[C@H]1C[C@@H](N=S(C)(C)=O)CN(c2ccnc(-c3cnc4ccc(S(C)(=O)=O)cn34)n2)C1 [I-312, dimethyl(((3R,5S)-5-methyl-1-(2-(6-(methylsulfonyl)imidazo[1,2-a]pyridin-3-yl)pyrimidin-4-yl)piperidin-3-yl)imino)-λ6-sulfanone] | 6.00 to 7.00
Cc1cnc(N2C[C@H](C)C[C@H](N=S(C)(C)=O)C2)nc1-c1cnc2ccc(Cl)cn12 [I-167, (((3 S,5R)-1-(4-(6-chloroimidazo[1,2-a]pyridin-3-yl)-5-methylpyrimidin-2-yl)-5-methylpiperidin-3-yl)imino)dimethyl-λ6-sulfanone] | 6.00 to 7.00
NC(=O)CC1CN(c2ccnc(-c3cnc4ccc(C(F)(F)F)cn34)n2)C1 [I-230, 2-(1-(2-(6-(trifluoromethyl)imidazo[1,2-a]pyridin-3-yl)pyrimidin-4-yl)azetidin-3-yl)acetamide] | 7.00 to 8.00

Same assay, conditions: Ki(app); 280 μM ATP, 200 μM (RS)7 peptide, 4 nM GCN2, 25° C.

pKi | Compound
7.00 to 8.00 | O=C1OCCC2CN(c3ccnc(-c4cnc5ccc(Cl)cn45)n3)CCN12 (stereo not shown) [I-98, 2-(2-{6-chloroimidazo[1,2-a]pyridin-3-yl}pyrimidin-4-yl)-octahydropyrazino[1,2-c][1,3]oxazin-6-one]
> 8.00 | CC1CC(C(N)=O)C(C)N(c2ccnc(-c3cnc4cc(F)c(Cl)cn34)n2)C1 (stereo not shown) [I-52, 1-[2-(6-Chloro-7-fluoro-imidazo[1,2-a]pyridin-3-yl)pyrimidin-4-yl]-2,5-dimethyl-piperidine-3-carboxamide]
7.00 to 8.00 | Cc1noc([C@@H]2CN(c3ccnc(-c4cnc5ccc(C#N)cn45)n3)C[C@H](C)O2)n1 [I-91, 3-{4-[(2S,6S)-2-methyl-6-(3-methyl-1,2,4-oxadiazol-5-yl)morpholin-4-yl]pyrimidin-2-yl}imidazo[1,2-a]pyridine-6-carbonitrile]
7.00 to 8.00 | O=C1NCC2CN(c3ccnc(-c4cnc5ccc(Cl)cn45)n3)CCN12 (stereo not shown) [I-97, 7-(2-{6-chloroimidazo[1,2-a]pyridin-3-yl}pyrimidin-4-yl)-octahydroimidazo[1,5-a]pyrazin-3-one]
6.00 to 7.00 | O=C1CCN(c2ccnc(-c3cnc4ccc(Cl)cn34)n2)CCN1 [I-26, 1-[2-(6-Chloroimidazo[1,2-a]pyridin-3-yl)pyrimidin-4-yl]-1,4-diazepan-5-one]
